Results: patent US11104690B2, “Indazole derivatives useful as inhibitors of diacylglyceride O-acyltransferase 2” (Merck Sharp & Dohme Corp., priority 2016, dated 2021)

What follows are compounds tested against Human DGAT2 (Homo sapiens (Human), UniProt Q96PD7) (assay: DGAT2 Enzymatic Activity Assay (triolein formation, LC/MS/MS)). Conditions: hDGAT2 Sf-9 membrane prep; 25 μM diolein, 10 μM oleoyl-CoA; room temperature.
Type: biochemical
Outline: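 Triolein product, measured by LC/MS/MS as a ratio to internal standard, gave % inhibition and 4-parameter IC50. Reaction: 25 μM diolein, 10 μM oleoyl-CoA, 10 ng/μL hDGAT2 Sf-9 membrane, 100 mM Tris.Cl pH 7.0, 20 mM MgCl2, 5% ethanol, room temperature.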

Human DGAT2, sequence (Q96PD7 whole entry): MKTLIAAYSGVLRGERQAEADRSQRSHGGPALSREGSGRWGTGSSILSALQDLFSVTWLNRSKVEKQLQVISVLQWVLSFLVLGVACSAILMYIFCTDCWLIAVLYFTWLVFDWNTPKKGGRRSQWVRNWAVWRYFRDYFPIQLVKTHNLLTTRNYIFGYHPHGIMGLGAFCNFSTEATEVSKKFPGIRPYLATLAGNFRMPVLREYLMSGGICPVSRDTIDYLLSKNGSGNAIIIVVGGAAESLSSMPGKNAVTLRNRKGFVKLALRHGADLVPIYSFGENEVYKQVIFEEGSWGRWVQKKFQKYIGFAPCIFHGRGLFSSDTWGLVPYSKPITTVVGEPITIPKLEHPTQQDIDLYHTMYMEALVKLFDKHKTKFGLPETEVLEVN

IC50 [nM] | Compound
83 | Cc1n[nH]c(C)c1C(C)NC(=O)c1ccc2c(-c3ccccc3Cl)nn(-c3ccc(F)cc3)c2c1 (racemic) [Example 17, 3-(2-chlorophenyl)-N-[1-(3,5-dimethyl-1H-pyrazol-4-yl)ethyl]-1-(4-fluorophenyl)-1H-indazole-6-carboxamide]
180 | O=C1CC(NC(=O)c2ccc3c(-c4ccccc4Cl)nn(-c4ccc(F)cc4)c3c2)C1 [Example 104, 3-(2-chlorophenyl)-1-(4-fluorophenyl)-N-(3-oxocyclobutyl)-1H-indazole-6-carboxamide]
322 | COc1cccc(-n2nc(-c3ccccc3Cl)c3ccc(C(=O)NC4(C)CCS(=O)(=O)C4)cc32)n1 (racemic) [Example 186, 3-(2-chlorophenyl)-1-(6-methoxypyridin-2-yl)-N-(3-methyl-1,1-dioxidotetrahydrothiophen-3-yl)-1H-indazole-6-carboxamide]
40 | O=C(N[C@@H]1CCCC[C@H]1O)c1ccc2c(-c3ccccc3Cl)nn(-c3ccc(F)cc3)c2c1 (racemic) [Example 67]
47 | O=C(NC1(CO)CCOCC1)c1ccc2c(-c3ccccc3Cl)nn(-c3ccc(F)cc3)c2c1 [Example 47, 3-(2-chlorophenyl)-1-(4-fluorophenyl)-N-[4-(hydroxymethyl)tetrahydro-2H-pyran-4-yl]-1H-indazole-6-carboxamide]
59 | O=C(NC1CCOC1)c1ccc2c(-c3ccccc3Cl)nn(-c3ccc(F)cc3)c2c1 (racemic) [Example 77, 3-(2-chlorophenyl)-1-(4-fluorophenyl)-N-(tetrahydrofuran-3-yl)-1H-indazole-6-carboxamide]
305 | C[C@@H](NC(=O)c1ccc2c(-c3ccccc3Cl)nn(-c3ccc(F)cc3)c2c1)[C@H](O)c1ccccc1 [Example 107, 3-(2-chlorophenyl)-1-(4-fluorophenyl)-N-[(1R,2R)-2-hydroxy-1-methyl-2-phenylethyl]-1H-indazole-6-carboxamide]
11 | O=C(NC1(CO)CCCC1)c1ccc2c(-c3ccccc3Cl)nn(-c3ccc(F)cc3)c2c1 [Example 43, 3-(2-chlorophenyl)-1-(4-fluorophenyl)-N-[1-(hydroxymethyl)cyclopentyl]-1H-indazole-6-carboxamide]
353 | O=C(NC(CO)C1CC1)c1ccc2c(-c3ccccc3Cl)nn(-c3ccc(F)cc3)c2c1 (racemic) [Example 78, 3-(2-chlorophenyl)-N-(1-cyclopropyl-2-hydroxyethyl)-1 (4-fluorophenyl)-1H-indazole-6-carboxamide]
96 | Cc1noc([C@H](NC(=O)c2ccc3c(-c4ccccc4Cl)nn(-c4ccc(F)cc4)c3c2)[C@H](C)O)n1 (stereo in doubt) [Example 48, 3-(2-chlorophenyl)-1-(4-fluorophenyl)-N-[(1R,2S)-2-hydroxy-1-(3-methyl-1,2,4-oxadiazol-5-yl)propyl]-1H-indazole-6-carboxamide]
9.5 | Cc1ccc(-n2nc(-c3ccccc3Cl)c3ccc(C(=O)NC4(C)CCS(=O)(=O)C4)cc32)nc1 (racemic) [Example 185, 3-(2-chlroophenyl)-N-(3-methyl-1,1-dioxidotetrahydrothiophen-3-yl)-1-(5-methylpyridin-2-yl)-1H-indazole-6-carboxamide]
1.4 | O=C(NC1CCS(=O)(=O)C1)c1ccc2c(-c3cccc(OC(F)F)c3)nn(-c3ccc(F)cc3)c2c1 (single isomer, unassigned) [Example 136-A, 3-[3-(difluoromethoxy)phenyl]-N-(1,1-dioxidotetrahydrothiophen-3-yl)-1-(4-fluorophenyl)-1H-indazole-6-carboxamide]
843 | O=C(NC1CCS(=O)(=O)C1)c1ccc2c(-c3ccc[n+]([O-])c3)nn(-c3ccc(F)cc3)c2c1 (single isomer, unassigned) [Example 166-A, 3-(6-((1,1-dioxidotetrahydrothiophen-3-yl)carbamoyl)-1-(4-fluorophenyl)-1H-indazol-3-yl)pyridine 1-oxide]
320 | O=C(NCc1cccnc1)c1ccc2c(-c3ccccc3Cl)nn(-c3ccc(F)cc3)c2c1 [Example 31, 3-(2-chlorophenyl)-1-(4-fluorophenyl)-N-(pyridin-3-ylmethyl)-1H-indazole-6-carboxamide]
8.2 | N#Cc1ccc(Cl)c(-c2nn(-c3ccc(F)cn3)c3cc(C(=O)NC4CCS(=O)(=O)C4)ccc23)c1 (single isomer, unassigned) [Example 127-A, 3-(2-chloro-5-cyanophenyl)-N-(1,1-dioxidotetrahydrothiophen-3-yl)-1-(5-fluoropyridin-2-yl)-1H-indazole-6-carboxamide]
156 | O=C(NC1CCCC1)c1ccc2c(-c3ccccc3Cl)nn(-c3ccc(F)cc3)c2c1 [Example 84, 3-(2-chlorophenyl)-N-cyclopentyl-1-(4-fluorophenyl)-1H-indazole-6-carboxamide]

IC50 [nM] | Compound
88 | CC(NC(=O)c1ccc2c(-c3ccccc3Cl)nn(-c3ccc(F)cc3)c2c1)C(O)C(F)(F)F (stereo not shown) [Example 81, 3-(2-chlorophenyl)-1-(4-fluorophenyl)-N-(3,3,3-trifluoro-2-hydroxy-1-methylpropyl)-1H-indazole-6-carboxamide]
157 | CC1(NC(=O)c2ccc3c(-c4ccccc4)nn(-c4ccc(F)cc4)c3c2)CCS(=O)(=O)C1 (single isomer, unassigned) [Example 162-A, 1-(4-fluorophenyl)-N-(3-methyl-1,1-dioxidotetrahydrothiophen-3-yl)-3-phenyl-1H-indazole-6-carboxamide]
95 | CCOC(=O)c1coc(-n2nc(-c3ccccc3Cl)c3ccc(C(=O)NC4(C)CCS(=O)(=O)C4)cc32)n1 (racemic) [Example 188, ethyl 2-{3-(2-chlorophenyl)-6-[(3-methyl-1,1-dioxidotetrahydrothiophen-3-yl)carbamoyl]-1H-indazol-1-yl}-1,3-oxazole-4-carboxylate]
772 | C[C@H](CO)NC(=O)c1ccc2c(-c3ccccc3Cl)nn(-c3ccc(F)cc3)c2c1 [Example 79, 3-(2-chlorophenyl)-1-(4-fluorophenyl)-N-[(1R)-hydroxy-1-methylethyl]-1H-indazole-6-carboxamide]
56 | CC1(NC(=O)c2ccc3c(-c4ccccc4Cl)nn(-c4ccc(F)cn4)c3c2)CCS(=O)(=O)C1 (single isomer, unassigned) [Example 172-B, 3-(2-chlorophenyl)-1-(5-fluoropyridin-2-yl)-N-(3-methyl-1,1-dioxidotetrahydrothiophen-3-yl)-1H-indazole-6-carboxamide]
2.5 | CC1(NC(=O)c2ccc3c(-c4cc(C#N)ccc4Cl)nn(-c4ccc(F)cc4)c3c2)CCS(=O)(=O)C1 (single isomer, unassigned) [Example 119-B, 3-(2-chloro-5-cyanophenyl)-1-(4-fluorophenyl)-N-(3-methyl-1,1-dioxidotetrahydrothiophen-3-yl)-1H-indazole-6-carboxamide]
48 | O=C(N[C@@H](CO)c1ccc(C(F)(F)F)nc1)c1ccc2c(-c3ccccc3Cl)nn(-c3ccc(F)cc3)c2c1 [Example 30, 3-(2-chlorophenyl)-1-(4-fluorophenyl)-N-{(1R)-2-hydroxy-1-[6-(trifluoromethyl)pyridin-3-yl]ethyl}-1H-indazole-6-carboxamide]
102 | CN1CC(NC(=O)c2ccc3c(-c4ccccc4Cl)nn(-c4ccc(F)cc4)c3c2)CC1=O (racemic) [Example 22, 3-(2-chlorophenyl)-1-(4-fluorophenyl)-N-(1-methyl-5-oxopyrrolidin-3-yl)-1H-indazole-6-carboxamide]
846 | O=C(NC1CCS(=O)(=O)C1)c1ccc2c(-c3cncnc3)nn(-c3ccc(F)cc3)c2c1 (single isomer, unassigned) [Example 133-A, N-(1,1-dioxidotetrahydrothiophen-3-yl)-1-(4-fluorophenyl)-3-pyrimidin-5-yl-1H-indazole-6-carboxamide]
28 | Cc1nnc(-c2cccc(-c3nn(-c4ccc(F)cc4)c4cc(C(=O)NC5(C)CCS(=O)(=O)C5)ccc34)c2)o1 (racemic) [Example 164, 1-(4-fluorophenyl)-N-(3-methyl-1,1-dioxidotetrahydrothiophen-3-yl)-3-[3-(5-methyl-1,3,4-oxadiazol-2-yl)phenyl]-1H-indazole-6-carboxamide]
96 | O=C(NCCn1cnnc1)c1ccc2c(-c3ccccc3Cl)nn(-c3ccc(F)cc3)c2c1 [Example 39, 3-(2-chlorophenyl)-1-(4-fluorophenyl)-N-[2-(4H-1,2,4-triazol-4-yl)ethyl]-1H-indazole-6-carboxamide]
96 | NC(=O)c1ccc(Cl)c(-c2nn(-c3ccc(F)cc3)c3cc(C(=O)NC4CCS(=O)(=O)C4)ccc23)c1 (single isomer, unassigned) [Example 122-A, 3-(5-carbamoyl-2-chlorophenyl)-N-(1,1-dioxidotetrahydrothiophen-3-yl)-1-(4-fluorophenyl)-1H-indazole-6-carboxamide]
5.4 | COc1cc(-c2nn(-c3ccc(F)cc3)c3cc(C(=O)NC4CCS(=O)(=O)C4)ccc23)c(Cl)cn1 (single isomer, unassigned) [Example 137-A, 3-(5-chloro-2-methoxypyridin-4-yl)-N-(1,1-dioxidotetrahydrothiophen-3-yl)-1-(4-fluorophenyl)-1H-indazole-6-carboxamide]
179 | O=C(NC1CCS(=O)(=O)C1)c1ccc2c(-c3ccccc3Cl)nn(Cc3ccc(F)cc3)c2c1 (stereo not shown) [Example 170, 3-(2-chlorophenyl)-N-(1,1-dioxidotetrahydrothiophen-3-yl)-1-(4-fluorobenzyl)-1H-indazole-6-carboxamide]
31 | CC[C@H](C)[C@@H](CO)NC(=O)c1ccc2c(-c3ccccc3Cl)nn(-c3ccc(F)cc3)c2c1 [Example 103, 3-(2-chlorophenyl)-1-(4-fluorophenyl)-N-[(1S,2S)-1-(hydroxymethyl)-2-methylbutyl]-1H-indazole-6-carboxamide]
